Converted amounts (≈) assume the structure as drawn. “And” between values parts separate entries of the source, which are not always exact repeats. Equal values may be shown once.
Key:
[1] = Antimigratory activity against human Cardiac fibroblast cells assessed as inhibition rate relative to control; format: functional
[2] = Antimigratory activity against human LX2 cells assessed as inhibition rate relative to control; format: functional, LX-2
[3] = system: KBM5; test: Antiproliferative activity against human KBM5 cells assessed as reduction in cell viability by MTT assay; format: functional, cell-based
[4] = Antiviral activity against DENV2 infected in human HepG2 cells incubated for 1 hrs by plaque assay; format: functional, cell-based, dengue virus type 2; conditions: Dengue virus, HepG2, 1 h
[5] = system: Rattus norvegicus; test: Anti-inflammatory activity against egg white-induced paw edema in rat model assessed as detumescence rate measured after 6 hrs relative to control; format: functional
[6] = system: Staphylococcus aureus; test: Antibacterial activity against Staphylococcus aureus MTCC 96 assessed as bacterial growth inhibition by broth micro-dilution assay; format: functional
[7] = system: K562; test: Antiproliferative activity against human K562 cells assessed as reduction in cell viability by MTT assay; format: functional, cell-based
[8] = system: Human immunodeficiency virus; test: Antiviral activity against HIV infected in human C8166 cells; format: functional, organism-based
[9] = Antiviral activity against HIV infected in human MT2 cells; format: functional, cell-based; conditions: Human immunodeficiency virus 1, MT2
[10] = system: MDA-MB-231; test: Antitumor activity against human MDA-MB-231 cells assessed as tumor growth inhibition; format: functional, cell-based
[11] = system: MDA-MB-361; test: Antitumor activity against human MDA-MB-361 cells assessed as tumor growth inhibition; format: functional, cell-based
[12] = system: HK-2; test: Antiproliferative activity against human HK-2 cells; format: functional, cell-based
[13] = Antiviral activity against DENV2 infected in human HeLa cells incubated for 1 hrs by plaque assay; format: functional, cell-based, dengue virus type 2; conditions: Dengue virus
[14] = system: HCT-116; test: Antiproliferative activity against human HCT-116 cells assessed as cell growth inhibition measured after 48 hrs by MTT assay; format: functional, cell-based; conditions: HCT-116, 48 h
[15] = Inhibition of mesenchymal transformation in human A549 cells assessed as inhibition rate relative to control; format: functional
[16] = system: BT-549; test: Antiproliferative activity against human BT-549 cells; format: functional, cell-based
[17] = system: Chikungunya virus; test: Antiviral activity against Chikungunya virus; format: functional, organism-based
[18] = system: enterovirus D68; test: Antiviral activity against Enterovirus D68 infected in human RD cells assessed as inhibition of viral replication measured after 48 hrs by qRT-PCR analysis; format: functional, organism-based; conditions: Enterovirus D
[19] = system: T47D; test: Antiproliferative activity against human T47D cells; format: functional, cell-based
[20] = system: MCF7; test: Cytotoxicity against human MCF7 cells; format: functional, cell-based

With C=C1CC[C@@H]2[C@](C)(CO)[C@H](O)CC[C@@]2(C)[C@@H]1C/C=C1/C(=O)OC[C@H]1O [ANDROGRAPHOLIDE] as the compound, how does the “inhibition (INH)” value [1] read?
Its value is 35%.

What about the “inhibition (INH)” value [2] of the same compound?
The value was 15%.

What about the IC50 [3] of the same compound?
Its IC50 is 8.5 µM.

And the IC50 [4]?
Its IC50 is 21 µM.

And the “inhibition (INH)” value [5]?
Its value is 74.42%.

What about the MIC [6] of the same compound?
Its MIC is 100 µg/mL (≈ 285 µM).

What about the IC50 [7] of the same compound?
The IC50 was 23.7 µM.

And the IC50 [8]?
The IC50 was 7.9 µM and 2.32 µM.

And the IC50 [9]?
Its IC50 is 140 µM.

And the IC50 [10]?
Its IC50 is 20.3 µM.

What about the IC50 [11] of the same compound?
Its IC50 is 31.5 µM.

And the IC50 [12]?
The IC50 was 30.6 µM.

What about the IC50 [13] of the same compound?
Its IC50 is 23 µM.

And the IC50 [14]?
The IC50 was 31.8 µM.

And the “inhibition (INH)” value [15]?
Its value is 55%.

What about the IC50 [16] of the same compound?
The IC50 was 23.2 µM.

What about the IC50 [17] of the same compound?
The IC50 was 0.6 µM.

And the IC50 [18]?
Its IC50 is 3.45 µM.

And the IC50 [19]?
The IC50 was 32.4 µM.

And the IC50 [20]?
The IC50 was 35.1 µM.

Source: ChEMBL document CHEMBL5236551, “Andrographolide and its derivatives: Current achievements and future perspectives” (Eur J Med Chem, 2021)
